Experimental findings from PubChem BioAssay (NCI) are described below.

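Five concentrations, 48 hours, 96-well plates. TGI denotes the concentration required for complete inhibition of growth.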 Where only a bound is given, the exact number is not on record here.

Assay in all cases: NCI tumour cell line growth inhibition, 48 h
Experiment [1] deals with ACHN renal.
The subject of experiment [2] is EKVX NSCLC.
The subject of experiment [3] is HOP-62 NSCLC.
Experiment [4] relates to KM12 colon.
Experiment [5] has as its system MOLT-4 leukemia.
Experiment [6] concerns NCI-H522 lung.
The test system of experiment [7] is OVCAR-4 ovarian.
The test system of experiment [8] is OVCAR-8 ovarian.
Experiment [9] has as its system SF-295 CNS.
Experiment [10] relates to SK-MEL-5 melanoma.
Experiment [11] has as its system SNB-19 CNS.
For experiment [12], the system named is TK-10 renal.
In experiment [13] the test system is U251 CNS.
For experiment [14], the system named is RXF 393 renal.
Experiment [15] concerns HS 578T breast.
Experiment [16] relates to PC-3 prostate.
For experiment [17], the system named is MCF7 breast.
Experiment [18] has as its system T-47D breast.

Take `Nc1ccc2ncc(Nc3ccc(F)cc3)nc2c1`: the TGI in [1], in experiment [2], in [3], in experiment [4], in experiment [5] and in [6] was greater than 100 µM in each case. In addition, the TGI in [7], in experiment [8], in experiment [9], in experiment [10], in experiment [11] and in experiment [12] was greater than 100 µM throughout. Also, the TGI in experiment [13] was greater than 100 µM.

`CC(OC1CC(=O)CC2C(=O)C=CC(=O)C12)c1ccccc1` (stereo not given): the TGI was 24.1 µM in experiment [1]; 30.6 µM in [2]; greater than 58.8 µM in [3]; 32.4 µM in experiment [4]; greater than 49.2 µM in [5]; 2.98 µM in experiment [6]. Further, the TGI in experiment [7] was 32.4 µM; in experiment [8], 33.2 µM; in experiment [14], 35.8 µM; in [9] it was 33 µM; in experiment [10], 33.6 µM; in [11] it was greater than 55.9 µM. Besides, the TGI in experiment [12] worked out at 31.6 µM; in experiment [13], 27.9 µM.

Take `CC(C)(C)OC(=O)NNC(=O)C1Cc2ccccc2OC1=O` (stereo not given): the TGI in [1], in experiment [2], in [3], in [15], in experiment [4] and in [5] was greater than 100 µM each time. The TGI in experiment [6], in experiment [8], in experiment [16], in experiment [14], in experiment [9] and in experiment [10] was greater than 100 µM each time. The TGI in experiment [11], in experiment [12] and in experiment [13] was greater than 100 µM each time.

Regarding `COc1ccc(OC)c(/C=C/C(=O)C(C)(C)C)c1`, the TGI in [1] was found to be 39.7 µM; in [2], 43.9 µM; in experiment [3] it was 50.8 µM; in [4] it was 52.9 µM; in experiment [5] it was 55.1 µM; in [6], 30.4 µM. Also, the TGI in experiment [7] came out at 49 µM; in experiment [8], 38 µM; in experiment [14] it was 34.3 µM; in experiment [9], 67.4 µM; in experiment [10], 29.1 µM; in experiment [11], 32.4 µM. Also, the TGI amounted to 72.7 µM in [12] and 43.1 µM in experiment [13].

Take `CCCCCCCCCCCCC/C=C1\C[C@H](O)COC1=O`: the TGI is 29.4 µM in [1]; 32 µM in experiment [2]; 31.8 µM in experiment [3]; 30.1 µM in experiment [4]; 33.5 µM in [6]; 32.7 µM in experiment [7]. The TGI in experiment [14] was determined as 42.6 µM; in [9] it was 33 µM; in [10], 26.6 µM; in experiment [11], 32.9 µM; in [12] it was 31.8 µM; in experiment [13] it was 32 µM.

Consider `Fc1ccc2c(c1)SC1Oc3ccccc3-c3c1c-2nn3-c1ccccc1` (stereo not given), for which the TGI in experiment [1], in experiment [2], in experiment [3], in [4], in experiment [5] and in experiment [6] was greater than 100 µM in each case. Also, the TGI in experiment [8], in experiment [14], in experiment [9], in experiment [12] and in experiment [13] was greater than 100 µM throughout.

Consider `CN(C)CCn1c(=O)oc2cc(C(=O)CN3CCOCC3)ccc21`, for which the TGI in [1], in experiment [2], in experiment [3], in experiment [15], in [4] and in experiment [17] was greater than 100 µM each time. Besides, the TGI in [5], in experiment [8], in [16], in experiment [14], in experiment [9] and in experiment [10] was greater than 100 µM throughout. The TGI in [11], in experiment [12] and in experiment [13] was greater than 100 µM each time.

On to `CCOC(=O)C1(Br)C(c2ccccc2)NC(=O)N(C2OC(COC(=O)c3ccccc3)C(OC(=O)c3ccccc3)C2OC(=O)c2ccccc2)C1(C)Br` (stereo not given), for which the TGI was greater than 100 µM in experiment [1]; greater than 94.5 µM in experiment [2]; greater than 100 µM in experiment [3]; 99.6 µM in experiment [4]; 59 µM in experiment [5]; 20.3 µM in [6]. Also, the TGI was 43.4 µM in [7]; greater than 100 µM in experiment [8]; 31 µM in experiment [14]; greater than 100 µM in experiment [9]; 31.3 µM in [10]; greater than 100 µM in [11]. Moreover, the TGI in [12] and in experiment [13] was greater than 100 µM each time.

In the case of `CN/C=C(/c1ccc(OC)cc1)C(O)c1ccc(OC)c(OC)c1` (stereo not given), the TGI in [1], in experiment [2], in [3], in experiment [4], in [5] and in [6] was greater than 100 µM each time. For the same molecule, the TGI in experiment [7], in experiment [8], in [14], in experiment [9], in experiment [10] and in experiment [11] was greater than 100 µM in each case. Moreover, the TGI in [12] and in [13] was greater than 100 µM each time.

In the case of `COc1cc2c(cc1OC)C(=O)Cc1ccc3c(c1CNCC2)OCO3`, the TGI in experiment [1], in experiment [2], in experiment [3], in experiment [4], in experiment [5] and in [6] was greater than 100 µM in each case. Further, the TGI in [7], in experiment [8], in [9], in experiment [10], in experiment [11] and in [12] was greater than 100 µM each time. Besides, the TGI in [13] was greater than 100 µM.

As for `CC1=CSC(O)(c2ccc(Cl)cc2)c2noc(=O)n21` (stereo not given), the TGI in experiment [1], in experiment [2], in experiment [3], in [4], in [17] and in [5] was greater than 100 µM throughout. For the same molecule, the TGI in experiment [7], in [8], in experiment [16], in experiment [14], in experiment [9] and in [10] was greater than 100 µM each time. The TGI in experiment [11], in experiment [18] and in experiment [12] was greater than 100 µM throughout.

As for `O=C1CCc2nc3ncccc3cc2C1`, the TGI in [1] is greater than 100 µM; in experiment [2], greater than 100 µM; in experiment [3], greater than 100 µM; in experiment [5], greater than 100 µM; in experiment [6], 55.4 µM; in experiment [7], greater than 100 µM. The TGI in [16], in experiment [14], in experiment [9], in experiment [10], in experiment [11] and in experiment [18] was greater than 100 µM in each case. The same molecule returned a TGI in experiment [12] greater than 100 µM.

Regarding `COc1ccc([C@@H]2CC(=O)NCCCNCCCCNCCCN2)cc1`, the TGI in experiment [1], in experiment [2], in [3], in [4], in [5] and in experiment [6] was greater than 100 µM throughout. Moreover, the TGI in experiment [7], in experiment [8], in experiment [14], in experiment [9], in experiment [10] and in [11] was greater than 100 µM each time. For the same molecule, the TGI in experiment [12] and in experiment [13] was greater than 100 µM in each case.

As to `Nc1ccc(C(=O)NN2C(=O)C(Cl)C2c2cc(Br)cc(Br)c2O)cc1` (stereo not given), the TGI in [1] was 61.9 µM; in [2], 59.5 µM; in [3], greater than 100 µM; in experiment [4] it was greater than 100 µM; in experiment [5], greater than 100 µM; in experiment [6] it was greater than 100 µM. Besides, the TGI was greater than 100 µM in experiment [7]; greater than 100 µM in experiment [8]; 79.8 µM in experiment [14]; greater than 100 µM in [9]; 65.5 µM in experiment [10]; greater than 100 µM in [11]. Moreover, the TGI in experiment [12] and in experiment [13] was greater than 100 µM in each case.

For `CCN=C=NCCCN(C)C`, the TGI in [1], in experiment [2], in [3], in [15], in [4] and in experiment [17] was greater than 100 µM each time. Besides, the TGI in experiment [5], in experiment [6], in experiment [7], in [8], in experiment [16] and in experiment [14] was greater than 100 µM in each case. The TGI in experiment [9], in experiment [10], in [11], in [12] and in [13] was greater than 100 µM in each case.

In the case of `CCOC(=O)CCSS(=O)(=O)C(F)(F)F`, the TGI in experiment [1], in experiment [2], in experiment [3], in experiment [4], in experiment [17] and in [7] was greater than 100 µM throughout. The TGI in experiment [8], in experiment [16], in experiment [14], in [9], in [10] and in experiment [11] was greater than 100 µM in each case. Also, the TGI in experiment [18], in experiment [12] and in experiment [13] was greater than 100 µM each time.

For the molecule `O=C(CSc1nnc(Cc2ccccc2)o1)Nc1ccccc1Cl`, the TGI in [1], in experiment [3], in [4], in [5], in experiment [6] and in experiment [7] was greater than 100 µM each time. In addition, the TGI in experiment [8], in experiment [9], in [10], in [11], in [12] and in experiment [13] was greater than 100 µM in each case.

In the case of `Cc1nc2nn(Cc3ccccc3)cc2c(=O)o1`, the TGI in experiment [1], in experiment [2], in experiment [3], in experiment [4], in [5] and in experiment [8] was greater than 100 µM each time. Moreover, the TGI in experiment [14], in experiment [9], in experiment [10], in [11], in experiment [12] and in experiment [13] was greater than 100 µM in each case.

Consider `C/C(=N/NC(=S)N(C)CCc1ccccn1)c1cnccn1`, for which the TGI in experiment [1] was found to be 3.51 µM; in [2], 12.8 µM; in [3], 9.62 µM; in experiment [15] it was 53.9 µM; in experiment [4], 19.4 µM; in [17], 30.6 µM. Also, the TGI in experiment [5] was greater than 71.1 µM; in experiment [6] it was 20.8 µM; in experiment [7], 5.93 µM; in experiment [8], 0.385 µM; in [16], 16.1 µM; in experiment [14] it was 13.9 µM. Besides, the TGI was determined as 4.65 µM in experiment [9]; 17.8 µM in experiment [10]; 19 µM in [11]; 14.8 µM in experiment [12]; 12.3 µM in experiment [13].

In the case of `O=[N+]([O-])c1cc2c(cc1O)[nH]c1cccc([N+](=O)[O-])c12`, the TGI in [1], in [3], in [4], in [5], in experiment [6] and in experiment [7] was greater than 100 µM each time. Moreover, the TGI in [8], in experiment [9], in experiment [10], in experiment [11] and in [12] was greater than 100 µM in each case.
